According to patent US8415128B2, “Mitigation of photodamage in analytical reactions” (Pacific Biosciences of California, Inc., priority 2005, dated 2013):

How the values were obtained:
Format in all cases: biochemical
[1] = system: modified φ29 DNA polymerase; test: Bulk DNA synthesis under laser illumination, agarose gel image scanning; settings: dye labeled tetraphosphates (reaction condition 3); 5 minute illumination; 5 mM DTT or 100 mM MEA
Protocol: In a first assay, synthesis reaction mixtures contained a modified φ29 DNA polymerase, 300 nM DNA template, three native nucleoside triphosphates (at 10 μM each) and a fluorescent dye labeled nucleoside polyphosphate (at 10 μM) in synthesis buffer (50 mM Tris-HCl, pH 7.5, 75 mM KCL, 20 mM (NH4)2SO4, 10 mM BME, 0.7 mM MnCl2). Each of the reactions were carried out at room temperature (22° C.) for the desired illumination period, ranging from 1 minute to one hour.
The experiment included two sets each of three different reaction mixtures: (1) a synthesis reaction using only native, e.g., unlabeled nucleoside triphosphates; (2) a synthesis reaction including two native nucleoside triphosphates, an Alexa 488 labeled dCTP analog, and an Alexa 568 labeled dTTP; and (3) a synthesis reaction including two native nucleoside triphosphates, an Alexa 488 labeled dC4P analog (tetraphosphate), and an Alexa 568 labeled dT4P. Each different synthesis reaction conditions included either no illumination or laser illumination during synthesis for five minutes with wavelengths of 488, 568 and 647 nm, followed by 60 minutes of nonilluminated synthesis. […]
The gel was subjected to image scanning (Molecular Dynamics Typhoon 9400, with Typhoon scanner Control Version 2; gel image quantified with Molecular Dynamiics ImageQuant ver. 5.2). […]

[2] = system: DNA polymerase immobilized within zero mode waveguides; test: DNA synthesis in zero mode waveguide arrays with and without laser illumination; settings: 160 mM DTT, without MEA; ZMW arrays
Protocol: A similar set of experiments to those described above were performed using DNA polymerase immobilized within zero mode waveguides in an array of waveguides. As above, the first experiment was designed to identify whether laser illumination caused damage to immobilized polymerase enzymes on nanostructured surfaces. The surfaces included ZMW arrays in which the polymerase enzyme was adsorbed to the surface. […] The illumination profile is shown in the first panel (far left), while the image of the stained DNA product in the illuminated synthesis is shown in the adjacent panel (middle left). […] The middle right and far right panels show non-illuminated waveguide arrays, and indicate substantially more DNA is present than in the illuminated sample, again showing photo-induced damage to the polymerase activity in the waveguide arrays. FIG. 4B illustrates a first set of waveguide arrays in which similar synthesis reactions were carried out in the presence of no additional mitigation agents (e.g., only 10 mM βME), or in the presence of 5 mM DTT and 100 mM MEA.

DNA polymerase enzymes = test: Chromatide incorporation activity after photodamage step on planar glass substrates; settings: relative to a non-illuminated control region; Laser Power 2.5 μW/μm^2; baseline 10 mM MEA-Ac, 0.1×GO-Cat, 25 mM Tris-Ascorbate; Trolox at 1 mM, PPD at 100 mM
Protocol: In the experiment, DNA polymerase enzymes were immobilized on planar glass substrates (fused silica microscope slides) and subjected to reaction conditions under which DNA synthesis was taking place. Each reaction mixture also included a baseline level of photodamage mitigating agents (10 mM MEA-Ac, 0.1×GO-Cat, 25 mM Tris-Ascorbate). The reactions were carried out under laser illumination of varying power.
Following the photodamage step, all the solution was washed from the chip and replaced with ordinary buffers and dNTPs. In addition, a base labeled fluorescent nucleotide (chromatide) was added to provide a fluorescent signal of incorporation activity following the photodamage step, above. […] The activity of the enzyme was measured based upon the relative fluorescence of the DNA on the slide.
Table 1, below provides the percent chromatide relative to a non-illuminated control region, for each different additive at the listed laser power.

| Compound | ratio of product when exposed to laser illumination to that in the absence of such illumination [1] | amount of damaged polymerase activity [2] | % Chromatide activity (DNA polymerase enzymes) |
| --- | --- | --- | --- |
| O[C@H](CS)[C@H](O)CS (racemic) [DTT, dithiothreitol] | 0.59 | improvements | – |
| Cc1cc(C(C)(C)C)c(O)c(C(C)(C)C)c1 [BHT, butylated hydroxytoluene] | – | – | 22% |
| C1CN2CCN1CC2 [DABCO, diazobicyclooctane] | – | – | 20% |
| NCCS [MEA, mercaptoethylamine] | 1.04 | – | – |
| Nc1ccc(N)cc1 [PPD, p-phenylenediamene] | – | – | 58% |
| Cc1c(C)c2c(c(C)c1O)CCC(C)(C(=O)O)O2 (stereo not shown) [Trolox] | – | – | 41% |
